Test results: patent publication US10000456B2, “Polycyclic compounds as lysophosphatidic acid receptor antagonists” (AMIRA PHARMACEUTICALS, INC., priority 2009, dated 2018)

test system: A2058 human melanoma cells; assay: LPA1 chemotaxis assay; format: cell-based; conditions: LPA 100 nM, read-out: IC50, inhibition of LPA-driven chemotaxis
Method: Chemotaxis of the A2058 human melanoma cells was measured using the Neuroprobe CHEMOTX® System plates ([…], 5.7 mm diameter sites). The filter sites were coated with 0.001% fibronectin (Sigma) in 20 mM Hepes, pH 7.4 and allowed to dry. A2058 cells were serum-starved for 24 hours, then harvested with Cell Stripper and resuspended in DMEM containing 0.1% fatty-acid-free bovine serum albumin (BSA) to a concentration of 1×10^6/ml. Cells were mixed with an equal volume of test compound (2×) in DMEM containing 0.1% fatty-acid-free BSA and incubated at 37° C. for 15 minutes. LPA (100 nM in DMEM containing 0.1% fatty-acid-free BSA) or vehicle was added to each well of the lower chamber and 50 μl of the cell suspension/test compound mix was applied to the upper portion of the CHEMOTX® plate. Plates were incubated at 37° C. for three hours and then the cells removed from the upper portion by rinsing with PBS and scraping. The filter was dried then stained with HEMA 3® Staining System (Fisher Scientific). The absorbance of the filter was read at 590 nm and IC50s were determined using SYMYX® Assay Explorer.

IC50, < 0.1 µM:
Cc1noc(-c2ccc(-c3ccc(C4(C(=O)O)CC4)cc3)cc2)c1Nc1cncc(-c2ccccc2Cl)c1 [Compound 64, 1-(4′-{4-[5-(2-Chloro-phenyl)-pyridin-3-ylamino]-3-methyl-isoxazol-5-yl}-biphenyl-4-yl)-cyclopropanecarboxylic acid]
Cc1noc(-c2ccc(-c3ccc(C4(C(=O)O)CC4)cc3)cc2)c1C(O)c1nnc(Cc2ccccc2)o1 (stereo not drawn) [Compound 13, 1-(4′-{4-[(5-Benzyl-[1,3,4]oxadiazol-2-yl)-hydroxy-methyl]-3-methyl-isoxazol-5-yl}-biphenyl-4-yl)-cyclopropanecarboxylic acid]
Cc1noc(-c2ccc(-c3ccc(C4(C(=O)O)CC4)cc3)cc2)c1Nc1cccc(-c2cccc(C(F)(F)F)c2)n1 [Compound 41, 1-(4′-{3-Methyl-4-[6-(3-trifluoromethyl-phenyl)-pyridin-2-ylamino]-isoxazol-5-yl}-biphenyl-4-yl)-cyclopropanecarboxylic acid]
Cc1noc(-c2ccc(-c3ccc(C4(C(=O)O)CC4)cc3)cc2)c1C(O)c1cccc(Cc2ccccc2)c1 (stereo not drawn) [Compound 26, 1-(4′-{4-[(3-Benzyl-phenyl)-hydroxy-methyl]-3-methyl-isoxazol-5-yl}-biphenyl-4-yl)-cyclopropanecarboxylic acid]
Cc1noc(-c2ccc(-c3ccc(C4(C(=O)O)CC4)cc3)cc2)c1Nc1cccc(Cc2ccccc2F)n1 [Compound 45, 1-(4′-{4-[6-(2-Fluoro-benzyl)-pyridin-2-ylamino]-3-methyl-isoxazol-5-yl}-biphenyl-4-yl)-cyclopropanecarboxylic acid]
Cc1noc(-c2ccc(-c3ccc(C4(C(=O)O)CC4)cc3)cc2)c1C(O)c1cncc(Cc2ccccc2)c1 (stereo not drawn) [Compound 27, 1-(4′-{4-[(5-Benzyl-pyridin-3-yl)-hydroxy-methyl]-3-methyl-isoxazol-5-yl}-biphenyl-4-yl)-cyclopropanecarboxylic acid]
Cc1noc(-c2ccc(-c3ccc(C4(C(=O)O)CC4)cc3)cc2)c1Nc1cccc(Cc2ccccc2)n1 [Compound 38, 1-{4′-[4-(6-Benzyl-pyridin-2-ylamino)-3-methyl-isoxazol-5-yl]-biphenyl-4-yl}-cyclopropanecarboxylic acid]
Cc1noc(-c2ccc(-c3ccc(C4(C(=O)O)CC4)cc3)cc2)c1Nc1cccc(-c2cccc(F)c2Cl)n1 [Compound 81, 1-(4′-{4-[6-(2-Chloro-3-fluoro-phenyl)-pyridin-2-ylamino]-3-methyl-isoxazol-5-yl}-biphenyl-4-yl)-cyclopropanecarboxylic acid]
Cc1noc(-c2ccc(-c3ccc(C4(C(=O)O)CC4)cc3)cc2)c1Nc1cncc(-c2ccccc2)c1 [Compound 58, 1-{4′-[3-Methyl-4-(5-phenyl-pyridin-3-ylamino)-isoxazol-5-yl]-biphenyl-4-yl}-cyclopropanecarboxylic acid]
COc1ccc(F)cc1-c1cccc(Nc2c(C)noc2-c2ccc(-c3ccc(C4(C(=O)O)CC4)cc3)cc2)n1 [Compound 75, 1-(4′-{4-[6-(5-Fluoro-2-methoxy-phenyl)-pyridin-2-ylamino]-3-methyl-isoxazol-5-yl}-biphenyl-4-yl)-cyclopropanecarboxylic acid]
Cc1noc(-c2ccc(-c3ccc(C4(C(=O)O)CC4)cc3)cc2)c1Nc1cccc(Cc2ccccc2)c1 [Compound 49, 1-{4′-[4-(3-Benzyl-phenylamino)-3-methyl-isoxazol-5-yl]-biphenyl-4-yl}-cyclopropanecarboxylic acid]
Cc1noc(-c2ccc(-c3ccc(C4(C(=O)O)CC4)cc3)cc2)c1Nc1cccc(-c2ccccc2Cl)n1 [Compound 60, 1-(4′-{4-[6-(2-Chloro-phenyl)-pyridin-2-ylamino]-3-methyl-isoxazol-5-yl}-biphenyl-4-yl)-cyclopropanecarboxylic acid]
